Assay results as given in patent US20220220135A1 (BAR-ILAN UNIVERSITY, priority 2019, published 2022).

How the values were obtained:
NPP1 [1] = molecular target: T1, NPP1 (Homo sapiens, UniProt P22413); assay: Inhibition of human NPP1, ATP as substrate (analogues 9-12); type: biochemical; conditions: ATP (100 μM) as the substrate
T1 sequence (P22413 1-925): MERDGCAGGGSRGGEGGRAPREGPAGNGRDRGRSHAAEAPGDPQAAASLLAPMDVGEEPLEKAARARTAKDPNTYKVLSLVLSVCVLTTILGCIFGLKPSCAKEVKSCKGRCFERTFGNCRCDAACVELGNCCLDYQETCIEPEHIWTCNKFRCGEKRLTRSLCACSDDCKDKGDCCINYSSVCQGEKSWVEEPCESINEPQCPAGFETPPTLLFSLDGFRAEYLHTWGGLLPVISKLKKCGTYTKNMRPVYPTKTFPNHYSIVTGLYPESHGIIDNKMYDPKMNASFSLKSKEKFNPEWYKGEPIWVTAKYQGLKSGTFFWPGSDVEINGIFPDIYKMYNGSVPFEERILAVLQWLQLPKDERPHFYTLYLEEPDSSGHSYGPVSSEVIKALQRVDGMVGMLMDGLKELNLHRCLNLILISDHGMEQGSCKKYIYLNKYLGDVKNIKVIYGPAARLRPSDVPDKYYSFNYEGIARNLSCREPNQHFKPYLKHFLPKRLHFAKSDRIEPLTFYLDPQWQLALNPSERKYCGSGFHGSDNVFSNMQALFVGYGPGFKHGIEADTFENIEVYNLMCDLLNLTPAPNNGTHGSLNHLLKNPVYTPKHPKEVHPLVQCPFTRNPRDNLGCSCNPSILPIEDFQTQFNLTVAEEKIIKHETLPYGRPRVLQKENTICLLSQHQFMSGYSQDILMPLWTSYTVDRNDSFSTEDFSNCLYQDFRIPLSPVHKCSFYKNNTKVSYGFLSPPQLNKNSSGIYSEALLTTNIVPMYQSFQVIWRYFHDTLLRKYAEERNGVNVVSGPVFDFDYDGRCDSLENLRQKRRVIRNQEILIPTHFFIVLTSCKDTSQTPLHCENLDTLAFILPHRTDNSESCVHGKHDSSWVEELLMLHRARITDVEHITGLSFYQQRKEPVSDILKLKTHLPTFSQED
Experimental: FIG. 2: Inhibition of NTPDases and NPPs by analogues 9-12 using as substrates ATP (100 μM) for NTPDase1,2,3,8 and pNP-TMP (100 μM) for NPP1,3 (Panel A); and ATP (100 μM) was used as the substrate for NPP1 (Panel B);
At least 2 independent experiments were performed. In panel A, the activity with 100 μM ATP was set as 100%, which was 287±31, 395±67, 278±22, 119±26 nmol of Pi·min−1·mg of protein−1 for human NTPDase1, -2, -3 and -8, respectively, and the activity with 100 μM pNP-TMP was set as 100% which was 67±5, 21±1 nmol of p-nitrophenol·min−1·mg of protein−1 for human NPP1 and NPP3, respectively. In panel B, the activity with 100 μM ATP was set as 100% which was 34±7 nmol of PPi·min−1·mg of protein−1 for NPP1.

NPP1 [2] = molecular target: T1, NPP1; assay: Inhibition of human NPP1, 100 μM ATP as substrate (FIG. 9, Table 6); type: biochemical; conditions: ATP (100 μM) as a substrate
Experimental: Each experiment was performed in triplicates;

human NPP3 = molecular target: T2, human NPP3 (Homo sapiens, UniProt O14638); assay: Inhibition of human NPP3, 100 μM p-Nph-5′-TMP as substrate (Tables 5, 7); type: biochemical; conditions: 100 μM p-Nph-5′-TMP as a substrate; n = 3
T2 sequence (O14638 1-875): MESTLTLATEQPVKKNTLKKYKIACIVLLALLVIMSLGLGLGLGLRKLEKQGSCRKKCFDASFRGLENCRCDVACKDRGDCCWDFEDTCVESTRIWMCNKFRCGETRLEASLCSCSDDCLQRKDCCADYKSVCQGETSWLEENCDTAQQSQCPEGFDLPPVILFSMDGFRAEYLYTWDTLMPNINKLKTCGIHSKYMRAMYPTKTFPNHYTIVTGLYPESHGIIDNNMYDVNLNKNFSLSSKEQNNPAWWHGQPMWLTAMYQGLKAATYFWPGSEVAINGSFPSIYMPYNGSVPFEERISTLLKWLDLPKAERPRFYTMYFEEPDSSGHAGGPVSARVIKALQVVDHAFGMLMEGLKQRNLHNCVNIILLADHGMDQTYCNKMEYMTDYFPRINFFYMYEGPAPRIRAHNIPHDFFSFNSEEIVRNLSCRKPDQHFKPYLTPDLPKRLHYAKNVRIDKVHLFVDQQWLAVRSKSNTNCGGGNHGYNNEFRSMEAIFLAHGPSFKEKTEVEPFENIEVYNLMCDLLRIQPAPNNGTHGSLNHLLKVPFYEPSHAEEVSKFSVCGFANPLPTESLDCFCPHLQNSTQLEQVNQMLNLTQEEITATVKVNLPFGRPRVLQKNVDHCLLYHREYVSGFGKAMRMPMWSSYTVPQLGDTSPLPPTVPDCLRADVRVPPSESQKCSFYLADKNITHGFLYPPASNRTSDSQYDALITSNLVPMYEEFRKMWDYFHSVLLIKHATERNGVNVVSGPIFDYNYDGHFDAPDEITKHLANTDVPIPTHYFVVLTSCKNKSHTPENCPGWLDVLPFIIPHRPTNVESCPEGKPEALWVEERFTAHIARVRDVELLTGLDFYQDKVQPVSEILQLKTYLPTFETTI

human P2Y1R = molecular target: T3, human P2Y1R (Homo sapiens, UniProt P47900); assay: Calcium mobilization in 1321N1 astrocytoma cells expressing human P2Y1R; type: cell-based
T3 construct: expressed in transfected cells; host or cells: 1321N1 astrocytoma cells
Experimental: (§1) Given the structural resemblance of 106-109 to the natural ligands of P2Y receptors, adenine and uracil nucleotides as natural substrates, were assessed for agonist potency on the human P2Y1, P2Y2, P2Y4, and P2Y6 receptor. To evaluate NPP1 selectivity of analogs 106-109, they were tested for their ability to activate of the uridine-nucleotide sensitive human recombinant P2Y1,2,4,6-receptors. The agonist potencies of this series of nucleotide analogues on the Gq protein-coupled human P2Y1R, P2Y2R, P2Y4R, and P2Y6R was determined by assessing its ability to induce calcium mobilization in stably transfected 1321N1 astrocytoma cells (Table 8). The nucleotide analogues were found in calcium mobilization assays to activate the P2Y2R with mid-micromolar potency.

P2Y6R = P2Y6R (Homo sapiens, UniProt Q15077); assay: Calcium mobilization in 1321N1 astrocytoma cells expressing human P2Y6R; type: cell-based; parameters: expressed in transfected cells; host or cells: 1321N1 astrocytoma cells (stably transfected)
Experimental: as §1

T3 sequence (P47900 whole entry): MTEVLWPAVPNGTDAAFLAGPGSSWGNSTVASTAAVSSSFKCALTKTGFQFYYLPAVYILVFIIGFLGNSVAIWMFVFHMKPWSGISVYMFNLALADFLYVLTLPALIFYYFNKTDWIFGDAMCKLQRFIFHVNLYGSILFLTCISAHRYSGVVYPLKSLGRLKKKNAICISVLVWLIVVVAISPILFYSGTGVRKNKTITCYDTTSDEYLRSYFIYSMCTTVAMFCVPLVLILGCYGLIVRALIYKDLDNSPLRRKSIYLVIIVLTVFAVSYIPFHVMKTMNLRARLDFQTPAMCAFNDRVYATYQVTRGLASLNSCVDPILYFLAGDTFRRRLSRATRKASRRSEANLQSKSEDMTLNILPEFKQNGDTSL
P2Y6R, sequence (Q15077 whole entry): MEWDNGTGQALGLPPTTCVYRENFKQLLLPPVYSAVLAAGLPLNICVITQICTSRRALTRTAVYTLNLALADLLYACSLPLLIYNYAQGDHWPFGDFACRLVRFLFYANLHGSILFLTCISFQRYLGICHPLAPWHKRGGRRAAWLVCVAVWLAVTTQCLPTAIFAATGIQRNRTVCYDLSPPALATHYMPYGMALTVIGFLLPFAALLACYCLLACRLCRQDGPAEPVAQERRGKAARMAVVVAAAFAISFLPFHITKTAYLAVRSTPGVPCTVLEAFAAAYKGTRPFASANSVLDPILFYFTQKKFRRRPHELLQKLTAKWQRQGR

| Compound | inhibition of human NPP1 activity (NPP1 [1]) | inhibition at 10 µM (NPP1 [2]; 10 μM, n = 3, read-out: % inhibition ± SEM at 10 μM, human NPP1) [%] | Ki (NPP1 [2]; read-out: Ki (μM ± SD), human NPP1 (converted)) [µM] | % inhibition ± SEM, human NPP3 (human NPP3) | % activation at 10 μM, P2Y1 (human P2Y1R) [%] | % activation at 10 μM, P2Y6 (P2Y6R) [%] |
| --- | --- | --- | --- | --- | --- | --- |
| O=c1ccn([C@@H]2O[C@H](COP(=S)(S)OP(=O)(O)OP(=O)(O)OP(=S)(S)OC[C@H]3O[C@@H](n4ccc(=O)[nH]c4=O)[C@H](O)[C@@H]3O)[C@@H](O)[C@H]2O)c(=O)[nH]1 (stereo partly drawn) [Analogue 12] | effectively blocked | – | – | – | – | – |
| Nc1ncnc2c1ncn2COCCOP(=S)(S)OP(=O)(O)O (stereo not drawn) [compound 106] | – | 68 ± 1 | 0.305 | n.i.d | 2 ± 2 | −2 ± 1 |
